Measured values: patent US8916584B2 (Vanderbilt University, priority 2010, dated 2014)

Molecular target: T1, mGluR4 (Homo sapiens, UniProt Q14833)
T1 construct: expressed in transfected cells; host or cells: CHO cells (human mGluR4) or HEK cells (rat mGluR4 with GIRK)
Assay: mGluR4 potentiation assay (fluorometric plate reader, compound then EC20 agonist); species for the tabulated values not stated
Format: cell-based
Settings: EC50 for potentiation of mGluR4
Protocol: The disclosed compounds and compositions can be evaluated for their ability to act as a potentiator of metabotropic glutamate receptor activity, in particular mGluR4 activity, by any suitable known methodology known in the art. For example, Chinese Hamster Ovary (CHO) cells transfected with human mGluR4 or HEK cells co-transfected with rat mGluR4 and the G-protein regulated Inwardly Rectifying Potassium channel (GIRK) were plated in clear bottom assay plates for assay in a Hamamatsu FDSS Fluorometric Plate Reader. The cells were loaded with either a Ca2+-sensitive fluorescent dye or the thallium responsive dye and the plates were washed and placed into a suitable kinetic plate reader. For human mGluR4 assays, a fluorescence baseline was established for 3-5 seconds, the disclosed compounds were then added to the cells, and the response in cells was measured. Approximately two and a half minutes later, a concentration of mGluR4 orthosteric agonist (e.g. glutamate or L-AP4) eliciting approximately 20% (EC20) of the maximal agonist response was added to the cells, and the response was measured. Two minutes later, a concentration of mGluR4 agonist (e.g. glutamate or L-AP4) eliciting 80% (EC80) of the maximal agonist response was added to the cells, and the response was measured. For rat mGluR4/GIRK experiments, a baseline was established for approximately five seconds, disclosed compounds were added, and either an EC20 or EC80 concentration of agonist was added approximately two and one half minutes later. Potentiation of the agonist response of mGluR4 by the disclosed compounds was observed as an increase in response to the EC20 concentration of agonist in the presence of compound compared to the response to agonist in the absence of compound. Similarly, antagonism of the agonist response of mGluR4 by the disclosed compounds was observed as a decrease in response to the EC80 concentration of agonist in the presence of compound compared to the response to agonist in the absence of compound.
The above described assay operated in two modes. In the first mode, a range of concentrations of the disclosed compounds are added to cells, followed by a single fixed concentration of agonist. If the compound acts as a potentiatior, an EC50 value for potentiation and a maximum extent of potentiation by the compound at this concentration of agonist is determined by non-linear curve fitting. If the compound acts as a noncompetitive antagonist, an IC50 value is determined by non-linear curve fitting. In the second mode, several fixed concentrations of the disclosed compounds are added to various wells on a plate, followed by a range in concentrations of agonist for each concentration of disclosed compound. The EC50 values for the agonist at each concentration of compound are determined by non-linear curve fitting. A decrease in the EC50 value of the agonist with increasing concentrations of the sample compound (a leftward shift of the agonist concentration-response curve) is an indication of the degree of mGluR4 potentiation at a given concentration of the sample compound. A decrease in the maximal response of the agonist with increasing concentrations of the sample compounds, with or without a rightward shift in agonist potency, is an indication of the degree of noncompetitive antagonism at mGluR4. The second mode also indicates whether the sample compounds also affect the maximum response to mGluR4 to agonists.

[1] = unit inferred, exponent notation

T1 sequence (Q14833 33-912): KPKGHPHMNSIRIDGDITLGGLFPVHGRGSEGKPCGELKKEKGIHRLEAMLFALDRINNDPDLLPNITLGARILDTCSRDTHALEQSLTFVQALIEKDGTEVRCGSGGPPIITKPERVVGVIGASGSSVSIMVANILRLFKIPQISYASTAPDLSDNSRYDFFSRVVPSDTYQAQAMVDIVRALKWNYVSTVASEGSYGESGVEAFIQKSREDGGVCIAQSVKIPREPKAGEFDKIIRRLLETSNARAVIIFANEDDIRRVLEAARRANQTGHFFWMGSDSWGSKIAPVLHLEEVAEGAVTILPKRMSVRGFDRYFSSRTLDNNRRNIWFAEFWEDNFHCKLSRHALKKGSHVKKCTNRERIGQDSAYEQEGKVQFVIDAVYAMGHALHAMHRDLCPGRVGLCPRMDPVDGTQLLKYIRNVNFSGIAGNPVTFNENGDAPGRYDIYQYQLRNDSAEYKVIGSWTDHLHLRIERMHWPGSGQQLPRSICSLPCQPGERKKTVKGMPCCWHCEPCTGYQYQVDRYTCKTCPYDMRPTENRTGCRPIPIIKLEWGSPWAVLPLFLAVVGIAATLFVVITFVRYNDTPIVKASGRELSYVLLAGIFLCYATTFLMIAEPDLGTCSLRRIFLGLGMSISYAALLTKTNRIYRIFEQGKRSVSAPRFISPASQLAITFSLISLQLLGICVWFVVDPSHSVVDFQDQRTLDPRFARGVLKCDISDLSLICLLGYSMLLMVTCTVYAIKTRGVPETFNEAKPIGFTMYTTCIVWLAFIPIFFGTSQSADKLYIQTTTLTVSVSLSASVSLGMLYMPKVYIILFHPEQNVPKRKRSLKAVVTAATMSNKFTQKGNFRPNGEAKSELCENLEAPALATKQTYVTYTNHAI

EC50 [1] [nM] | EC50 (EC20 concentration of agonist) [nM] | Compound
468 | – | COc1cc(Nc2noc3cccnc23)ccc1F [Example 24, N-(4-fluoro-3-methoxyphenyl)isoxazolo[4,5-b]pyridin-3-amine]
2030 | – | c1ccc(Nc2noc3cccnc23)cc1 [Example 17, N-phenylisoxazolo[4,5-b]pyridin-3-amine]
4090 | – | Fc1cccc(Nc2noc3ccccc23)c1 [Example 31, N-(3-fluorophenyl)benzo[d]isoxazol-3-amine]
– | 78.8 | COc1ccc(Nc2noc3cccnc23)cc1Cl [Example 5, N-(3-chloro-4-methoxyphenyl)isoxazolo[4,5-b]pyridin-3-amine]
1140 | – | Clc1cccc(Nc2noc3ccccc23)c1 [Example 30, N-(3-chlorophenyl)benzo[d]isoxazol-3-amine]
338 | – | Fc1ccc(Nc2noc3cccnc23)cc1F [Example 23, N-(3,4-difluorophenyl)isoxazolo[4,5-b]pyridin-3-amine]
– | 209 | Clc1cccc(Nc2noc3cccnc23)c1 [Example 1, N-(3-chlorophenyl)isoxazolo[4,5-b]pyridin-3-amine]
590 | – | Cc1cc(Nc2noc3cccnc23)ccc1Cl [Example 20, N-(4-chloro-3-methylphenyl)isoxazolo[4,5-b]pyridin-3-amine]
1000 | – | c1cnc2c(Nc3ccc4c(c3)OCO4)noc2c1 [Example 19, N-(benzo[d][1,3]dioxol-5-yl)isoxazolo[4,5-b]pyridin-3-amine]
3660 | – | CC(=O)c1cccc(Nc2noc3cccnc23)c1 [Example 22, l-(3-(isoxazolo[4,5-b]pyridin-3-ylamino)phenyl)ethanone]
– | 2100 | COc1cc(Nc2noc3cccnc23)ccc1Cl [Example 7, N-(4-chloro-3-methoxyphenyl)isoxazolo[4,5-b]pyridin-3-amine]
– | 4610 | Clc1ccc(Nc2noc3cccnc23)cc1Cl [Example 4, N-(3,4-dichlorophenyl)isoxazolo[4,5-b]pyridin-3-amine]
– | 434 | FC(F)(F)c1cccc(Nc2noc3cccnc23)c1 [Example 6, N-(3-(trifluoromethyl)phenyl)isoxazolo[4,5-b]pyridin-3-amine]
153 | – | Fc1ccc2onc(Nc3cccc(Cl)c3)c2n1 [Example 27, N-(3-chlorophenyl)-5-fluoroisoxazolo[4,5-b]pyridin-3-amine]
1170 | – | FC(F)(F)Oc1cccc(Nc2noc3cccnc23)c1 [Example 18, N-(3-(trifluoromethoxy)phenyl)isoxazolo[4,5-b]pyridin-3-amine]
– | 893 | Fc1ccc(Nc2noc3cccnc23)cc1Cl [Example 3, N-(3-chloro-4-fluorophenyl)isoxazolo[4,5-b]pyridin-3-amine]
7030 | – | COc1ccc(Nc2noc3ccccc23)cc1Cl [Example 33, N-(3-chloro-4-methoxyphenyl)benzo[d]isoxazol-3-amine]
– | 4340 | COc1ccc(Nc2noc3cccnc23)cc1OC [Example 8, N-(3,4-dimethoxyphenyl)isoxazolo[4,5-b]pyridin-3-amine]
4040 | – | FC(F)C(F)(F)Oc1cccc(Nc2noc3cccnc23)c1 [Example 26]
– | 364 | FC(F)Oc1cccc(Nc2noc3cccnc23)c1 [Example 2, N-(3-(difluoromethoxy)phenyl)isoxazolo[4,5-b]pyridin-3-amine]
89.2 | – | O=S(=O)(Cc1ccccc1Cl)n1ccc(Nc2noc3cccnc23)c1 [Example 16, N-(1-((2-chlorobenzyl)sulfonyl)-1H-pyrrol-3-yl)isoxazolo[4,5-b]pyridin-3-amine]
– | 651 | Fc1cccc(Nc2noc3cccnc23)c1 [Example 9, N-(3-fluorophenyl)isoxazolo[4,5-b]pyridine-3-amine]
